For data set [1] the following is noted: Single inhaled exposure, dose 187.5 mg; asthma patients; Bohadana et al. (1980); cited from earlier work.
Another data set deals with mouse model of asthma. The following applies: 350 mcg/kg intra-nasally; Shen et al. 2002; cited from earlier work.
Data set [2] deals with TS induced BAL inflammation. The experiment in a line: Tobacco smoke (TS) induced BAL inflammation, 11 daily exposures, BAL cell counts. In kind it is in vivo, A/J mice. Particulars: for % Inhibition, BAL Total cells / % Inhibition, BAL lymphocytes / % Inhibition, BAL macrophages / % Inhibition, BAL neutrophils: 24 hrs following 11 daily TS exposures. The source says:
Female inbred A/J mice (body weights on initial day of use: ˜20 g) were obtained from Harlan, full barrier bred and certified free from specified micro-organisms on receipt. The mice were housed, up to 5 per cage, in individually ventilated, polycarbonate solid bottomed cages (IVC) with grade 8 aspen chip bedding. Environment (airflow, temperature and humidity) within the cages was controlled by the IVC system (Techniplast). Food (RM 1, Special Diet Services) and water were provided ad libitum. Individual animals were identified by unique coloured “pentel” markings on their tails, weighed and randomly assigned to treatment groups.
In this exposure protocol, mice were exposed in groups of 5 in individual clear polycarbonate chambers (27 cm×16 cm×12 cm). The TS from the cigarettes was allowed to enter the exposure chambers at a flow rate of 100 ml/min. In order to minimise any potential problems caused by repeated exposure to a high level of TS (6 cigarettes), the exposure of the mice to TS was increased gradually over the exposure period to a maximum of 6 cigarettes. The exposure schedule used in this study was as follows:
A further group of mice were exposed to air on a daily basis for equivalent lengths of time as controls (no TS exposure).
The trachea was cannulated using a Portex nylon intravenous cannula (pink luer fitting) shortened to approximately 8 mm. Phosphate buffered saline (PBS) containing heparin (10 units/ml) was used as the lavage fluid. A volume of 0.4 ml was gently instilled and withdrawn 3 times using a 1 ml syringe and then placed in an Eppendorf tube and kept on ice prior to subsequent determinations.
Lavage fluid was separated from cells by centrifugation and the supernatant decanted and frozen for subsequent analysis. The cell pellet was re-suspended in a known volume of PBS and total cell numbers calculated by counting a stained (Turks stain) aliquot under a microscope using a haemocytometer.
The residual cell pellet was diluted to approximately 10^5 cells per ml. A volume of 500 μl was placed in the funnel of a cytospin slide and centrifuged for 8 min at 800 rpm. The slide was air dried and stained using ‘Kwik-Diff’ solutions (Shandon) as per the proprietary instructions. When dried and cover-slipped, differential cells were counted using light microscopy. Up to 400 cells were counted by unbiased operator using light microscopy. Cells were differentiated using standard morphometric techniques.
Since tests for normality were positive the data was subjected to a one way analysis of variance test (ANOVA), followed by a Bonferroni correction for multiple comparisons in order to test for significance between treatment groups. A “p” value of <0.05 was considered to be statistically significant. Percentage inhibitions were automatically calculated within the Excel spreadsheets for the cell data using the formula below: […]

For data set [3] the following is noted: cited from earlier work.
For data set [4] the following is noted: cited from earlier work. This is another data set of the same source.
A further data set can be described thus: in vivo. The following applies: A/J, mouse, 1 hour post dosing.
The conditions of data set [5]: intra-nasal 0.1 mg/kg theophylline/0.1 mg/kg dexamethasone versus oral 1 mg/kg theophylline/0.3 mg/kg dexamethasone.
Protocol: (§1) The mice were terminally anaesthetised and blood collected by cardiac puncture into syringes containing 20 U lithium Heparin in 5 ul. The collected blood was mixed and decanted into eppendorf tubes before centrifugation in a microfuge. Plasma was collected and stored at −80° C. prior to analysis by an HPLC/MS/MS method. The equipment used in the measurement of plasma levels were a Micromann Quatro Micro Mass Spectrometer (Micromass UK Limited) and a Waters 2795 Alliance HT liquid chromatograph (Waters USA).
(§2) Samples were prepared for analysis by adding 200 μl of acetonitrile (containing 0.25 mg/l dextrorphan as an internal standard) to 50 μl of each thawed sample and standard and mixed vigorously. Each sample and standard was then centrifuged at 10000 g for 2 minutes and the supernatant removed for LC-MS/MS analysis.
(§3) Positive ions for parent compound and a specific fragment product were monitored in a Multiple Reaction Monitoring mode using a Micromass Quatro Micro Mass Spectrometer with Micromass MassLynx software version 4.0. A 25 μl aliquot of each sample and standard was injected onto the liquid chromatography system. Lowest order of quantification (LOQ) was determined as 0.016 mg/L with the detection limit being 0.003 mg/L.
Data set [6] has as its system key inflammatory cells in COPD. The following applies: 500 mcg inhaled twice daily, 3 months, COPD patients; Hattatowa et al. 2002; cited from earlier work.
[7] abbreviates: Intra-nasal dosing, Dexamethasone 0.1 mg/kg.
Setting [8] is: Oral dosing, Dexamethasone 0.3 mg/kg.
The mark [9] stands for this setting: Intra-nasal dosing, Theophylline 0.5 mg/kg.
[10] abbreviates: Oral dosing, Theophylline 3 mg/kg.
Setting [11] is: monotherapy, oral or intra-nasal.

Like-named read-outs stand apart in the source and are kept apart here.

Protocol for in vivo: as §1, §2, §3

On to `Cn1c(=O)c2[nH]cnc2n(C)c1=O.NCCN` [Aminophylline, theophylline ethylenediamine], for which the “Net peak theophylline plasma level” value in data set [1] was 0.91 mg/L.

Consider “(+)-[(RS)-16a,17a-Butylidenedioxy-11b, 21-dihydroxy-1,4-pregnadiene-3,20-dione] [Budesonide]”, for which the “efficacy in mouse model of asthma” value with mouse model of asthma was “efficacious”.

`C[C@@H]1C[C@H]2[C@@H]3CCC4=CC(=O)C=C[C@]4(C)[C@@]3(F)[C@@H](O)C[C@]2(C)[C@@]1(O)C(=O)CO` [Dexamethasone]: in data set [2] (setting [7]), the “% Inhibition, BAL Total cells” value is reported as 13%; the “% Inhibition, BAL lymphocytes” value came to 14%; the “% Inhibition, BAL macrophages” value stood at 10%; the “% Inhibition, BAL neutrophils” value was 16%. For the same compound, in data set [2] (setting [8]), the “% Inhibition, BAL Total cells” value is on record as −16%; the “% Inhibition, BAL lymphocytes” value is given as −7%; the “% Inhibition, BAL macrophages” value is −14%; the “% Inhibition, BAL neutrophils” value is on record as −46%.

Turning to `Cn1c(=O)c2[nH]cnc2n(C)c1=O` [Theophylline, 3,7-dihydro-1,3-dimethyl-1H-purine-2,6-dione], in data set [3] (250 or 375 mg theophylline twice daily with 400 mcg budesonide, asthma patients, Evans et al.), the “plasma concentration of theophylline, median value” was 8700 ng/mL. For the same compound, the “Average theophylline plasma level” value in data set [3] (Daily dose 400 mg oral, 4 weeks, Alexander et al. (1980)) is on record as 15.1 mg/L; in data set [3] (Daily dose 600 mg oral, 4 weeks, Iversen et al. (1992)) it was 7.1 mg/L; in data set [3] (Daily dose 300-600 mg oral, 4 weeks, Culpitt et al. (2002)) it was 9.5 mg/L. Further, in data set [3] (Phyllocontin or Uniphylline, daily dose 562-573 mg oral, 4 weeks, U.S. Pat. No. 6,025,360), the “theophylline plasma level in 20/25 patients (average not quoted)” value is reported as “had levels ≧5 mg/L”. Also, the mean plasma half-life entry was “about 8 hours” in data set [4] (adults); “approximately 30 hours” in data set [4] (premature neonates); “approximately 3.5 hours” in data set [4] (up to the age of 20); 5 h in data set [4] (up to the first year of life); 12 h in data set [4] (within the first 6 months). For the same compound, in data set [4] (oral absorption), the “bioavailability from the gastrointestinal tract” value is 90-100%. Further, in data set [4] (slowed by the presence of food), the “time to peak levels following ingestion” value is 1 to 2 h. Also, the “% Inhibition, BAL Total cells” value in data set [2] (setting [9]) is recorded as 16%; in data set [2] (setting [10]), −11%. Also, the “% Inhibition, BAL lymphocytes” value turned out to be 14% in data set [2] (setting [9]) and 1% in data set [2] (setting [10]). Further, the “% Inhibition, BAL macrophages” value in data set [2] (setting [9]) is on record as 3%; in data set [2] (setting [10]), −4%. In addition, the “% Inhibition, BAL neutrophils” value in data set [2] (setting [9]) is 25%; in data set [2] (setting [10]), −10%. Also, the “inhibition of total number of cells recovered in the BAL induced by TS exposure” value in data set [2] (setting [11]) is “Neither theophylline nor dexamethasone monotherapy when given orally or by the intra-nasal route significantly inhibited”. In addition, in data set [2] (setting [11]), the “inhibitory effect on specific cell types in BAL (macrophages, neutrophils, lymphocytes)” value was “No statistically significant inhibitory effect”. Also, the concentration at 1 h in the data set “in vivo” (mean theophylline plasma level, Intra-nasal 0.1 mg/kg theophylline in combination with 0.1 mg/kg Dexamethasone, TS exposed mice) is 22 ± 9 ng/mL; in the data set “in vivo” (mean theophylline plasma level, Intra-nasal 0.25 mg/kg theophylline in combination with 0.1 mg/kg Dexamethasone, TS exposed mice), 45 ± 10 ng/mL; in “in vivo” (mean theophylline plasma level, Intra-nasal 0.5 mg/kg theophylline in combination with 0.1 mg/kg Dexamethasone, TS exposed mice) it was 74 ± 13 ng/mL; in the data set “in vivo” (mean theophylline plasma level, Oral 1 mg/kg theophylline in combination with 0.3 mg/kg Dexamethasone, TS exposed mice) it was 479 ± 47 ng/mL; in the data set “in vivo” (mean theophylline plasma level, Oral 3 mg/kg theophylline in combination with 0.3 mg/kg Dexamethasone, TS exposed mice), 1370 ± 192 ng/mL; in the data set “in vivo” (systemic theophylline exposure (plasma level), intra-nasal administration at the doses used (0.1-0.5 mg/kg)), less than 100 ng/mL. Also, the “systemic theophylline levels, times lower intra-nasal vs oral” value in data set [5] is listed as roughly 17 times.

For “(6(,11(,16(,17( )-6,9-difluoro-11-hydroxy-16-methyl-3-oxo-17-(1-oxopropoxy)androsta-1,4-diene-17-carbothioic acid S-(fluoromethyl) ester [Fluticasone]”, in data set [6], the “reductions in key inflammatory cells in bronchial biopsies” value is listed as “did not detect significant reductions”.

Source of the values: US9084799B2, “Inhaled combination therapy” (Pulmagen Therapeutics (Synergy) Limited, priority 2005, dated 2015).
